How the values were obtained:
AIDS patients = settings: human, in vivo; cited from earlier work
reverse transcriptase = settings: cited from earlier work
[1] = test system: C3H Mammary adenocarcinoma 16/C; experiment: Growth of subcutaneous transplants of C3H mammary adenocarcinoma 16/C in B6C3F1 female mice; assay type: in vivo; settings: i.p., 98 mg/kg, qd (1,7,14,21)
Procedure: (§1) The amount of protein in the alkaloidal and viscotoxin fractions were also determined to be within the required fingerprint ranges. Anticancer activities of T4GEN were studied in animals bearing subcutaneous transplants of C3H Mammary adenocarcinoma 16/C. This tumor is maintained as a lung framed tumor in C3H female mice. In this example, tumors (1×10^6 cells) were transplanted (S.C.) in 18-20 g B6C3F1 hybrid female mice. On the following day, the tumor beating animals were randomized and separated into different treatment groups (10 mice per group). There were 15 animals in the control group who received only physiological saline during the treatment periods. The treatments (i.p.) were staged 48 hours after the transplants and given for a duration of 14 days (daily single injections).Animals were weighed on days 5, 9 and 14 to assess toxic effects. Tumors were measured on day 21 post transplants and the results are represented as tumor weights using formula [formula] (l=length of tumor, w=width of tumor expressed in mm).

[2] = Weight change of tumor bearing B6C3F1 mice (toxic effects); assay type: in vivo; settings: i.p., 98 mg/kg, qd (1,7,14,21)
Procedure: as §1

## Cc1cn([C@H]2C[C@H](N=[N+]=[N-])[C@@H](CO)O2)c(=O)[nH]c1=O [AZT, azidothymidine]
AIDS patients
  toxic side effects: serious toxic side effects including immunosuppression

## OC[C@@H]1CC[C@H](n2cnc3c(O)ncnc32)O1 [ddI, 2',3'-dideoxyinosine]
Reverse transcriptase
  inhibition of reverse transcriptase: inhibit reverse transcriptase
AIDS patients
  toxic side effects: serious toxic side effects including immunosuppression

## O=c1[nH]cc(F)c(=O)[nH]1 [5FIuorouracil]
[1]
  Tumor Weight Inhibition: 100%
[1]; saline controls 0.27
  Tumor Wts (day 21): 0.00
[1]; saline controls 1/15
  Tumor Free Animals (day 93): 0/6
[2]
  Δ Wts (day 14): +1.77 g

## Nc1ccn([C@H]2CC[C@@H](CO)O2)c(=O)n1 [ddC, 2',3'-dideoxycytidine]
Reverse transcriptase
  inhibition of reverse transcriptase: inhibit reverse transcriptase
AIDS patients
  toxic side effects: serious toxic side effects including immunosuppression
